From the NIST ThermoML archive (doi:10.1021/je1012586)

Legend:
[1] = refractive index (Na D-line) (dimensionless); wn = mass fraction of the nth substance listed; conditions: 101 kPa, Liquid
[2] = wn = mass fraction of the nth substance listed; conditions: for surface tension liquid-gas: Pendant drop shape; for viscosity / mass density: 101 kPa, Liquid; for viscosity: Capillary tube (Ostwald / Ubbelohde) method

C1CNCCN1 [piperazine] + O
Conditions | mass density, [2] [kg/m3] | refractive index, [1] | surface tension liquid-gas, [2] [mN/m] | viscosity, [2] [mPa·s]
298.15 K, w1 = 0.0174 | 997.75 | 1.33796 | 70.97 | 0.87
298.15 K, w1 = 0.0345 | 998.52 | 1.34183 | 69.95 | 0.94
298.15 K, w1 = 0.0688 | 1000.18 | 1.34759 | 69.83 | 1.08
298.15 K, w1 = 0.1035 | 1002.23 | 1.35307 | 69.41 | 1.29
303.15 K, w1 = 0.0174 | 996.37 | 1.33706 | 70.09 | 0.78
303.15 K, w1 = 0.0345 | 997.08 | 1.34024 | 69.18 | 0.85
303.15 K, w1 = 0.0688 | 998.69 | 1.34608 | 68.99 | 0.96
303.15 K, w1 = 0.1035 | 1000.64 | 1.35203 | 68.37 | 1.18
308.15 K, w1 = 0.0174 | 994.74 | – | – | 0.71
308.15 K, w1 = 0.0345 | 995.43 | – | – | 0.75
308.15 K, w1 = 0.0688 | 996.97 | – | – | 0.86
308.15 K, w1 = 0.1035 | 998.84 | – | – | 1.04
313.15 K, w1 = 0.0174 | 992.91 | 1.33604 | 69.11 | 0.68
313.15 K, w1 = 0.0345 | 993.59 | 1.33892 | 68.21 | 0.69
313.15 K, w1 = 0.0688 | 995.07 | 1.34482 | 68.11 | 0.78
313.15 K, w1 = 0.1035 | 996.86 | 1.35071 | 67.44 | 0.9
318.15 K, w1 = 0.0174 | 990.9 | – | – | 0.59
318.15 K, w1 = 0.0345 | 991.56 | – | – | 0.63
318.15 K, w1 = 0.0688 | 992.99 | – | – | 0.71
318.15 K, w1 = 0.1035 | 994.73 | – | – | 0.84
323.15 K, w1 = 0.0174 | 988.72 | 1.33476 | 67.93 | 0.54
323.15 K, w1 = 0.0345 | 989.35 | 1.33759 | 67.29 | 0.57
323.15 K, w1 = 0.0688 | 990.74 | 1.34336 | 67.06 | 0.65
323.15 K, w1 = 0.1035 | 992.39 | 1.34957 | 66.45 | 0.78
328.15 K, w1 = 0.0174 | 986.37 | – | – | 0.5
328.15 K, w1 = 0.0345 | 986.98 | – | – | 0.52
328.15 K, w1 = 0.0688 | 988.33 | – | – | 0.58
328.15 K, w1 = 0.1035 | 989.92 | – | – | 0.68
333.15 K, w1 = 0.0174 | 983.83 | 1.33348 | 66.99 | 0.46
333.15 K, w1 = 0.0345 | 984.46 | 1.33577 | 66.48 | 0.48
333.15 K, w1 = 0.0688 | 985.77 | 1.34221 | 66.14 | 0.54
333.15 K, w1 = 0.1035 | 987.3 | 1.34829 | 65.31 | 0.62
